Patent US7060405B2, “Naphthoquinone derivative and electrophotographic photoreceptor containing the same” (Samsung Electronics Co., Ltd., priority 2003, dated 2006)

Assay: solubility in an organic solvent
Format: physicochemical
Conditions: compared to a conventional electron-transporting material
Description: In addition, two properties of the naphthoquinone derivative of Formula 2 that was used in Example 1 was measured: solubility in an organic solvent and compatibility with a binder resin.

COc1ccc(C(=O)C2=C(c3ccccc3)C(=O)c3ccccc3C2=O)cc1 [Formula 2]
solubility in an organic solvent: improved
